From the supplement of paper PMC10307832

Compound: CC1=C(C(=O)N2C=CSC2=N1)CCN3CCC(=C(C4=CC=CC=C4)C5=CC=C(C=C5)F)CC3 + COc1cc2c(Oc3ccc(NC(=O)C4(C(=O)Nc5ccc(F)cc5)CC4)cc3F)ccnc2cc1OCCCN1CCOCC1 [Foretinib] (partner 0.25 µM)
Test: relative viability (nuclei count vs DMSO), 5 days (fraction); higher = more cells survive
Procedure, shortened: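 A single step with final 0.05% Triton X-100, 1% formaldehyde and 1 ug/ml Hoechst fixed the cells and stained nuclei 5 days after treatment. Lung cancer cell lines in 1536-well plates had been treated by pin tool the day after seeding with one drug alone or a fixed anchor-drug dose plus five library-drug doses (not always all listed) in √10 steps, and nuclei were counted on 4× images. Relative viability is the ratio of nuclei in treated wells to nuclei in vehicle wells, taken as the median of duplicate plates.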

Cell Line | relative viability (first compound 0.08 µM) | relative viability (first compound 0.253 µM) | relative viability (first compound 0.8 µM) | relative viability (first compound 2.53 µM) | relative viability (first compound 8 µM)
NCI-H1299 | 1.19 | 1.14 | 1.13 | 1.14 | 1.02
IA-LM | 1.1 | 1.06 | 1.24 | 1.22 | 0.691
NCI-H1915 | 1.1 | 0.964 | 1.1 | 1.18 | 0.535
NCI-H596 | 0.797 | 0.936 | 0.885 | 1.1 | 0.519
EPLC-272H | 0.658 | 0.622 | 0.657 | 0.677 | 0.576
NCI-H23 | 0.945 | 0.902 | 0.924 | 1.02 | 0.795
201T | 1.1 | 1.26 | 1.16 | 1.25 | 0.864
NCI-H2085 | 0.882 | 1.05 | 1.07 | 1.05 | 0.7
NCI-H2228 | 0.689 | 0.645 | 1.13 | 0.864 | 0.55
BEN | 0.708 | 0.74 | 0.639 | 0.677 | 0.595
HCC-366 | 0.935 | 1 | 1.01 | 1 | 0.662
SK-MES-1 | 0.979 | 1.07 | 0.928 | 0.731 | 0.864
CAL-12T | 1.17 | 1.04 | 1.29 | 1.23 | 0.691
NCI-H1666 | 0.924 | 0.956 | 0.949 | 1.04 | 0.798
NCI-H2087 | 0.989 | 1.2 | 1.17 | 1.24 | 0.528
LK-2 | 1.35 | 1.07 | 1.18 | 1.33 | 0.794
UMC-11 | 0.948 | 1.07 | 1.08 | 1.18 | 0.692
HCC-827 | 1.11 | 1.08 | 1.05 | 1.13 | 1.01
LCLC-103H | 0.864 | 0.567 | 0.732 | 0.761 | 0.496
NCI-H1975 | 1.04 | 0.664 | 0.965 | 1.21 | 0.591
NCI-H1944 | 0.8 | 1.12 | 0.891 | 0.862 | 0.539
NCI-H441 | 1.07 | 0.968 | 1.05 | 0.976 | 0.84
SK-LU-1 | 0.909 | 0.597 | 1.01 | 1.12 | 0.581
A-427 | 1.08 | 1.1 | 1.16 | 1.15 | 1
COR-L23 | 0.898 | 1.02 | 1.07 | 1.23 | 0.584

Cell Line | relative viability (first compound 0.08 µM) | relative viability (first compound 0.253 µM) | relative viability (first compound 0.8 µM) | relative viability (first compound 2.53 µM) | relative viability (first compound 8 µM)
NCI-H838 | 0.827 | 1.03 | 1.04 | 1.12 | 0.9
NCI-H322M | 0.86 | 1.01 | 1.11 | 0.942 | 0.9
EKVX | 0.671 | 1.04 | 0.815 | 0.855 | 0.677
HOP-62 | 1.17 | 0.995 | 1.14 | 1.06 | 0.705
PC-14 | 0.783 | 0.999 | 1 | 0.828 | 0.783
NCI-H2347 |  | 0.835 | 0.523 | 1.16 | 0.837
NCI-H727 | 0.846 | 1.01 | 0.89 | 0.921 | 0.624
EMC-BAC-2 | 0.945 | 0.982 | 0.981 | 1.12 | 0.972
NCI-H1993 | 0.701 | 0.677 | 0.757 | 0.915 | 0.682
SW 900 | 0.833 | 0.935 | 0.951 | 0.988 | 0.566
ABC-1 | 1.03 | 1.18 | 0.958 | 0.869 | 0.635
PC-3 [JPC-3] | 1.01 | 0.885 | 1.05 | 1.17 | 0.93
HARA | 1.19 | 0.98 | 0.956 | 0.942 | 0.649
NCI-H650 | 0.994 | 1.11 | 1.13 | 1.17 | 1.06
NCI-H2023 | 0.831 | 0.713 | 0.758 | 0.984 | 0.621
NCI-H2126 | 1.08 | 1.1 | 1.19 | 1.22 | 0.927
RERF-LC-KJ | 0.794 | 0.92 | 0.917 | 0.846 | 0.561
NCI-H1793 | 0.601 | 0.866 | 0.795 | 0.624 | 0.44
NCI-H1734 | 0.991 | 0.913 | 0.72 | 0.992 | 0.555
NCI-H1395 | 1.07 | 1.08 | 0.972 | 0.97 | 1.06
NCI-H1651 | 0.747 | 0.884 | 0.912 | 0.822 | 0.558
LC-2-ad | 0.971 | 1.09 | 0.892 | 1.12 | 0.761
NCI-H460 | 0.782 | 0.796 | 1.16 | 1.13 | 0.232
NCI-H2170 | 0.874 | 1.03 | 1.11 | 1.06 | 0.674
H3255 | 0.818 | 0.891 | 0.734 | 0.886 | 0.707

Cell Line | relative viability (first compound 0.08 µM) | relative viability (first compound 0.253 µM) | relative viability (first compound 0.8 µM) | relative viability (first compound 2.53 µM) | relative viability (first compound 8 µM)
A549 | 0.954 | 0.982 | 1.03 | 0.97 | 0.763
NCI-H520 | 0.778 | 0.846 | 0.924 | 0.873 | 0.641
NCI-H1437 | 1.23 | 1.32 | 1.31 | 1.34 | 0.841
NCI-H358 | 0.568 | 0.665 | 0.695 | 0.87 | 0.483
LU99A | 0.793 | 0.771 | 0.832 | 0.822 | 0.802
HCC-78 | 0.547 | 0.522 | 0.513 | 0.534 | 0.522
NCI-H647 | 1.03 | 1.23 | 1.24 | 1.2 | 0.65
NCI-H1650 | 1.09 | 1.12 | 1.15 | 1.21 | 0.65
COR-L 105 | 0.574 | 1.05 | 1.02 | 1.56 | 0.761
Calu-6 | 0.93 | 0.93 | 0.863 | 0.898 | 0.707
NCI-H2009 | 1.33 | 1.24 | 1.18 | 1.26 | 1.13
NCI-H1703 | 0.4 | 0.415 | 0.321 | 0.363 | 0.319
NCI-H2405 | 1.08 | 1.03 | 1.09 | 1.04 | 0.969
LOU-NH91 | 0.91 | 0.926 | 1.03 | 0.942 | 0.906
HCC-15 | 1.06 | 0.995 | 1.16 | 1.07 | 0.774
SW 1573 | 1.07 | 0.829 | 0.814 | 0.947 | 0.72
LXF-289 | 1 | 1.01 | 1.01 | 1.01 | 0.879
NCI-H1355 | 1.09 | 0.94 | 1.08 | 0.893 | 0.661
NCI-H1755 | 0.907 | 0.888 | 0.892 | 0.912 | 0.762
NCI-H661 | 0.871 | 1.02 | 0.983 | 1.05 | 0.814
LCLC-97TM1 | 1.01 | 1.01 | 1.02 | 0.92 | 0.958
ChaGo-K-1 | 0.884 | 1.04 | 1.04 | 0.942 | 0.548
NCI-H3122 | 1.01 | 1.1 | 0.931 | 0.991 | 0.91
